From ChEMBL document CHEMBL1201862, “PubChem BioAssay data set” (2004)
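Each compound was tested at five concentrations against cells in 96-well plates for 48 hours. Abbreviation: GI50, concentration required for 50% inhibition of growth.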 The source made the active and inactive calls. Cut-off read from the data, not from the text of the source: active = GI50 up to about 1.1 µM and inactive = higher.

How the values were obtained:
Test in all cases: DTP human tumour cell line panel, 48 h
[1] = system: 786-0
[2] = system: A498
[3] = system: A549
[4] = system: ACHN
[5] = system: CAKI-1
[6] = system: CCRF-CEM
[7] = system: COLO 205
[8] = system: DLD-1
[9] = system: DMS-114
[10] = system: DMS-273
[11] = system: EKVX
[12] = system: HCC 2998
[13] = system: HCT-116
[14] = system: HCT-15
[15] = system: HL-60
[16] = system: HOP-18
[17] = system: HOP-62
[18] = system: HOP-92
[19] = system: HT-29
[20] = system: IGROV-1
[21] = system: K562
[22] = system: KM-20L2
[23] = system: KM12
[24] = system: LOX IMVI
[25] = system: LXFL 529
[26] = system: M14
[27] = system: M19-MEL
[28] = system: MOLT-4
[29] = system: Malme-3M
[30] = system: NCI-H226
[31] = system: NCI-H23
[32] = system: NCI-H460
[33] = system: NCI-H522
[34] = system: OVCAR-3
[35] = system: OVCAR-4
[36] = system: OVCAR-5
[37] = system: OVCAR-8
[38] = system: RPMI-8226
[39] = system: RXF 393
[40] = system: SF-268
[41] = system: SF-295
[42] = system: SF-539
[43] = system: SK-MEL-28
[44] = system: SK-MEL-2
[45] = system: SK-MEL-5
[46] = system: SK-OV-3
[47] = system: SN12C
[48] = system: SNB-19
[49] = system: SNB-75
[50] = system: SNB-78
[51] = system: SW-620
[52] = system: TK-10
[53] = system: U-251
[54] = system: UACC-257
[55] = system: UACC-62
[56] = system: UO-31
[57] = system: XF498

For `COc1ccc(/C=C2/C[N+](C)(C)C/C(=C/c3ccc(OC)cc3)C2=O)cc1`, the GI50 [1] was 34.7 µM (inactive), the GI50 [2] was 68.4 µM (inactive) and the GI50 [3] was > 76.4 µM (inactive). For the same compound, the GI50 [4] was > 100 µM (inactive), the GI50 [5] was > 100 µM (inactive) and the GI50 [6] was 18.5 µM (inactive). For the same compound, the GI50 [7] was 16.9 µM (inactive), the GI50 [8] was 28.7 µM (inactive) and the GI50 [9] was 13.4 µM (inactive). For the same compound, the GI50 [10] was 18.3 µM (inactive), the GI50 [11] was > 100 µM (inactive) and the GI50 [12] was 15.3 µM (inactive). For the same compound, the GI50 [13] was 32.5 µM (inactive), the GI50 [14] was greater than 100 µM and the GI50 [15] was 14.7 µM (inactive). For the same compound, the GI50 [16] was > 100 µM (inactive), the GI50 [17] was > 100 µM (inactive) and the GI50 [18] was 52.1 µM (inactive). For the same compound, the GI50 [19] was 30.2 µM (inactive), the GI50 [20] was 23.9 µM (inactive) and the GI50 [21] was 11.6 µM (inactive). For the same compound, the GI50 [22] was 50 µM (inactive), the GI50 [23] was 16 µM (inactive) and the GI50 [24] was 88.1 µM (inactive). For the same compound, the GI50 [25] was 21.9 µM (inactive), the GI50 [26] was 70.5 µM (inactive) and the GI50 [27] was 23.6 µM (inactive). The GI50 [28] was 16.7 µM (inactive), the GI50 [29] was 22.5 µM (inactive) and the GI50 [30] was 20.9 µM (inactive). For the same compound, the GI50 [31] was 56 µM (inactive), the GI50 [32] was 38.2 µM (inactive) and the GI50 [33] was 17.9 µM (inactive). The GI50 [34] was 30 µM (inactive), the GI50 [35] was 36 µM (inactive) and the GI50 [36] was > 68.7 µM (inactive). For the same compound, the GI50 [37] was 31.9 µM (inactive), the GI50 [38] was 5.7 µM (inactive) and the GI50 [39] was > 100 µM (inactive). For the same compound, the GI50 [40] was 26.9 µM (inactive), the GI50 [41] was > 77.1 µM (inactive) and the GI50 [42] was 40 µM (inactive). For the same compound, the GI50 [43] was 12.9 µM (inactive), the GI50 [44] was 25.6 µM (inactive) and the GI50 [45] was 23.4 µM (inactive). For the same compound, the GI50 [46] was > 100 µM (inactive), the GI50 [47] was 36.1 µM (inactive) and the GI50 [48] was 43.3 µM (inactive). The GI50 [49] was 66.7 µM (inactive), the GI50 [50] was 38.5 µM (inactive) and the GI50 [51] was 42.7 µM (inactive). The GI50 [52] was > 100 µM (inactive), the GI50 [53] was 19.5 µM (inactive) and the GI50 [54] was 29.4 µM (inactive). The GI50 [55] was 16.3 µM (inactive), the GI50 [56] was > 100 µM (inactive) and the GI50 [57] was 88.7 µM (inactive).
In the case of `CN(C)C(=O)C1CCC(=C2C(=O)OC(C)(C)OC2=O)N1C` (configuration not stated), the GI50 [1] was > 100 µM (inactive), the GI50 [2] was > 100 µM (inactive) and the GI50 [3] was > 100 µM (inactive). For the same compound, the GI50 [4] was > 100 µM (inactive), the GI50 [5] was > 100 µM (inactive) and the GI50 [6] was > 100 µM (inactive). The GI50 [7] was > 100 µM (inactive), the GI50 [8] was > 100 µM (inactive) and the GI50 [9] was > 100 µM (inactive). The GI50 [10] was > 100 µM (inactive), the GI50 [11] was > 100 µM (inactive) and the GI50 [12] was > 100 µM (inactive). The GI50 [13] was > 100 µM (inactive), the GI50 [14] was greater than 100 µM and the GI50 [16] was > 100 µM (inactive). The GI50 [17] was > 100 µM (inactive), the GI50 [18] was > 100 µM (inactive) and the GI50 [19] was > 100 µM (inactive). The GI50 [20] was > 100 µM (inactive), the GI50 [21] was > 100 µM (inactive) and the GI50 [22] was > 100 µM (inactive). For the same compound, the GI50 [23] was > 100 µM (inactive), the GI50 [24] was > 100 µM (inactive) and the GI50 [25] was > 100 µM (inactive). The GI50 [26] was > 100 µM (inactive), the GI50 [27] was > 100 µM (inactive) and the GI50 [28] was > 100 µM (inactive). The GI50 [29] was > 100 µM (inactive), the GI50 [30] was > 100 µM (inactive) and the GI50 [31] was > 100 µM (inactive). The GI50 [32] was > 100 µM (inactive), the GI50 [33] was > 100 µM (inactive) and the GI50 [34] was > 100 µM (inactive). For the same compound, the GI50 [35] was > 100 µM (inactive), the GI50 [36] was > 100 µM (inactive) and the GI50 [37] was > 100 µM (inactive). The GI50 [39] was > 100 µM (inactive), the GI50 [40] was > 100 µM (inactive) and the GI50 [41] was > 100 µM (inactive). The GI50 [42] was > 100 µM (inactive), the GI50 [43] was > 100 µM (inactive) and the GI50 [44] was > 100 µM (inactive). For the same compound, the GI50 [45] was > 100 µM (inactive), the GI50 [46] was > 100 µM (inactive) and the GI50 [47] was > 100 µM (inactive). For the same compound, the GI50 [48] was > 100 µM (inactive), the GI50 [49] was > 100 µM (inactive) and the GI50 [50] was > 100 µM (inactive). For the same compound, the GI50 [51] was > 100 µM (inactive), the GI50 [52] was > 100 µM (inactive) and the GI50 [53] was > 100 µM (inactive). The GI50 [54] was > 100 µM (inactive), the GI50 [55] was > 100 µM (inactive) and the GI50 [56] was > 100 µM (inactive). The GI50 [57] was > 100 µM (inactive).
